Tested on: BPA aptamer (DNA, aptamer) CCGCCGTTGGTGTGGTGGGCCTAGGGCCGGCGGCGCACAGCTGTTATAGACGTCTCCAGC
Assay: microscale thermophoresis
Details: 25 °C; 5 nM aptamer; BPA 310 pM to 10 μM; Hill1 fit; buffer not stated

`CC(C)(c1ccc(O)cc1)c1ccc(O)cc1` was tested, and the Kd was ~ 100 nM.

— article PMC4255672 (2014)
